Assay results taken from patent US20220047603A1, “SUBSTITUTED PYRROLOPYRIDINE-DERIVATIVES” (BAYER AKTIENGESELLSCHAFT, priority 2018, published 2022).
pIC50: −log10 of the molar value.

Columns and labels:
[1] = target: T1, human TBK1 (Homo sapiens, UniProt Q9UHD2); assay: TBK1 high ATP kinase assay (TR-FRET); format: biochemical; conditions: 1 mM ATP, selectivity assay, 15 min preincubation
T1 construct: Recombinant full-length N-terminally His-tagged human TBK1; His (N); purchased Life Technologies PR5618B; host or cells: insect cells
T1 sequence (Q9UHD2 1-729): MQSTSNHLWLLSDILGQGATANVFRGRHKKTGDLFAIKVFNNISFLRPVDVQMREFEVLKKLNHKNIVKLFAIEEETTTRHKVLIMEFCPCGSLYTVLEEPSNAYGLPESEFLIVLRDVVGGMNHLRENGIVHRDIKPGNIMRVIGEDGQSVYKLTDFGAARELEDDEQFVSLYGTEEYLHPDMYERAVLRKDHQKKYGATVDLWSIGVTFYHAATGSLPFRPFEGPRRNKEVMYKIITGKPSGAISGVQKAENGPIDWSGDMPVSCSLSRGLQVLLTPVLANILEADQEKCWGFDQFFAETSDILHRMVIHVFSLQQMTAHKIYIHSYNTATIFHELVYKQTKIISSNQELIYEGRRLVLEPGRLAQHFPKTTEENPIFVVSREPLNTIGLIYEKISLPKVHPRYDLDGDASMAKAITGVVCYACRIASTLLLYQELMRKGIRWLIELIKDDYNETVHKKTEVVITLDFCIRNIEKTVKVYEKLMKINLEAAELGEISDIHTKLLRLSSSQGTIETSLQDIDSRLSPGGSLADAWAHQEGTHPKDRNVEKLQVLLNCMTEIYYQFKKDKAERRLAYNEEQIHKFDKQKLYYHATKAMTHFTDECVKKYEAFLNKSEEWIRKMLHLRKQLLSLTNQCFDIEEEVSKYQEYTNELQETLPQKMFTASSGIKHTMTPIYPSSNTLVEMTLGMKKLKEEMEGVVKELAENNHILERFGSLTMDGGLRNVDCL
Method: TBK1 High ATP Kinase Assay
TBK1-inhibitory activity of compounds of the present invention at a high ATP concentration after preincubation of enzyme and test compounds was quantified employing the TR-FRET-based TBK1 assay as described in the following paragraphs.
Recombinant full-length N-terminally His-tagged human TBK1, expressed in insect cells and purified by Ni-NTA affinity chromatography, was purchased from Life Technologies (Cat. No PR5618B) and used as enzyme. As substrate for the kinase reaction biotinylated peptide biotin-Ahx-[…] (C-terminus in amide form) was used which can be purchased e.g. form the company Biosyntan (Berlin-Buch, Germany).
The concentration of TBK1 was adjusted depending of the activity of the enzyme lot and was chosen appropriate to have the assay in the linear range, typical concentrations were in the range of 0.002-0.004 μg/mL. The reaction was stopped by the addition of 3 μL of a solution of TR-FRET detection reagents (0.33 μM streptavidine-XL665 [Cisbio Bioassays, Codolet, France], 2.5 nM anti-phosho-Serine antibody [Merck Millipore, “STK antibody”, cat. #35-002] and 1.25 nM LANCE EU-W1024 labeled anti-mouse IgG antibody [Perkin-Elmer, product no. AD0077]) in an aqueous EDTA-solution (167 mM EDTA, 0.13% (w/v) bovine serum albumin in 100 mM HEPES/NaOH pH 7.5).

[2] = target: T2, human ROCK-II (Homo sapiens, UniProt O75116); assay: ROCK-II kinase assay (ADP-Glo); format: biochemical; conditions: 10 μM ATP, 15 min preincubation, 30 min at 22° C.
T2 construct: human ROCK-II (amino acids 11-552); His6 (N); purchased Eurofins 14-451-K; host or cells: baculovirus infected SF21 insect cells
Method: ROCK-II-inhibitory activity of compounds of the present invention was quantified employing the ROCK-II assay as described in the following paragraphs. In essence, the enzyme activity is measured by quantification of the adenosine-di-phosphate (ADP), which is generated as a co-product of the enzyme reaction, via the “ADP-Glo™ Kinase Assay” kit from the company Promega. This detection system works as follows: In a first step the adenosine-tri-phosphate (ATP) not consumed in the kinase reaction is quantitatively converted to cAMP employing an adenylate cyclase (“ADP-Glo-reagent”), then the adenylate cyclase is stopped and the ADP generated in the kinase reaction converted to ATP which generates in a luciferase-based reaction a glow-luminescence signal (“Kinase Detection Reagent”).
As substrate for the kinase reaction the biotinylated peptide biotin-Ahx-[…] (C-terminus in amide form) was used which can be purchased e.g. from the company Biosyntan (Berlin-Buch, Germany).
The concentration of ROCK-II was adjusted depending of the activity of the enzyme lot and was chosen appropriate to have the assay in the linear range, a typical concentration is about 5 nM. The reaction was stopped by the addition of 2.5 μl of “ADP-Glo-reagent” (1:1, 5 fold diluted) and the resulting mixture was incubated at 22° C. for 1 h to convert the ATP not consumed in the kinase reaction completely to cAMP. […] The amount of emitted light was taken as a measure for the amount of ADP generated and thereby for the activity of the ROCK-II.

[3] = target: MAP4K1 (Homo sapiens, UniProt Q92918); assay: MAP4K1 binding competition assay (TR-FRET, Tracer 222)
Chain of MAP4K1 (Q92918 whole entry): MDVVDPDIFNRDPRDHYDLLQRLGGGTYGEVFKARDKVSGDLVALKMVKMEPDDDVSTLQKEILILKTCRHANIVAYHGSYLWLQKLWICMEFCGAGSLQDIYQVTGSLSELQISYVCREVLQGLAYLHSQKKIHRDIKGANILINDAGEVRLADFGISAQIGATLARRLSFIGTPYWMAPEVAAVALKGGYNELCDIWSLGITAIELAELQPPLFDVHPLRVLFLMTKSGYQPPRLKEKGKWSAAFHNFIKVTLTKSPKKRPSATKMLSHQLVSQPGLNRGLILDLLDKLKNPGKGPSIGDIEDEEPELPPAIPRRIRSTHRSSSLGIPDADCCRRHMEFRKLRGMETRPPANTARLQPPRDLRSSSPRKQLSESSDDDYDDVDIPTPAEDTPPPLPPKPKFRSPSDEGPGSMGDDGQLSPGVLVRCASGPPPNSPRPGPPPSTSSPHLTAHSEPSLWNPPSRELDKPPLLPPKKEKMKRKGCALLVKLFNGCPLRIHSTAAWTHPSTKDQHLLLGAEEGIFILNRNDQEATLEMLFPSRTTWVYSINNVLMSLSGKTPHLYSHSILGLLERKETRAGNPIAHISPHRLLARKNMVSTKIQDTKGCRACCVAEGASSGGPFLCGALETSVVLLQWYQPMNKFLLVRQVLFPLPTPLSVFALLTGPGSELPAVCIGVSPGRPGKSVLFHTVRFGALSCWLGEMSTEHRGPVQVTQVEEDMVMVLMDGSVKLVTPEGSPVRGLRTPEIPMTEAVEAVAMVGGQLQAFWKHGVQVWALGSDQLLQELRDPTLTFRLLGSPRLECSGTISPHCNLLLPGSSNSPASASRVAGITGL

T2 sequence (O75116 11-552): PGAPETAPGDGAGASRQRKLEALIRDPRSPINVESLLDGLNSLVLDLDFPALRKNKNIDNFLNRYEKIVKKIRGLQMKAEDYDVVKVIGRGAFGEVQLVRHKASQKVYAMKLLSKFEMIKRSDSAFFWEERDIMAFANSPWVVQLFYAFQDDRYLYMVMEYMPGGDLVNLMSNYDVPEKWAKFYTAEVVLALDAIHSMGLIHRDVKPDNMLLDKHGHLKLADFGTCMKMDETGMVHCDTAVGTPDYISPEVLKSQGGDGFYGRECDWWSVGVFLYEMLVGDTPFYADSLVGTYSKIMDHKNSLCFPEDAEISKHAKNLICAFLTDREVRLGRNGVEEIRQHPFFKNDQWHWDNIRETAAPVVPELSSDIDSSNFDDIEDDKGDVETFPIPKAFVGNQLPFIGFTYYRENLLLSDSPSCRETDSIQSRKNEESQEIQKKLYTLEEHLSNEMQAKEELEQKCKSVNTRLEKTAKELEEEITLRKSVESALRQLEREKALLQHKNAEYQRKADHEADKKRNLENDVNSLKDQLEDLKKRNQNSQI

Row | Structure (SMILES) | pIC50 [1] | pIC50 [2] | pIC50 [3]
1 | Fc1cc(NC2=NCC3(CCOC3)CO2)cc(F)c1Oc1ccnc2[nH]cc(C3(C(F)(F)F)CC3)c12 (single isomer, unassigned; enantiomer 2) [Example 7, N-[3,5-difluoro-4-({3-[1-(trifluoromethyl)cyclopropyl]-1H-pyrrolo[2,3-b]pyridin-4-yl}oxy)phenyl]-2,7-dioxa-9-azaspiro[4.5]dec-8-en-8-amine (single enantiomer 2)] | < 4.70 |  | 
2 | Fc1cc(NC2=NCC3(CCOCC3)CO2)cc(F)c1Oc1ccnc2[nH]cc(C3(C(F)(F)F)CC3)c12 [Example 11, N-[3,5-difluoro-4-({3-[1-(trifluoromethyl)cyclopropyl]-1H-pyrrolo[2,3-b]pyridin-4-yl}oxy)phenyl]-2,9-dioxa-4-azaspiro[5.5]undec-3-en-3-amine] | < 4.70 |  | 
3 | Fc1cc(NC2=NCC3(CCC3)CO2)cc(F)c1Oc1ccnc2[nH]cc(C3(C(F)(F)F)CCC3)c12 [Example 1, N-[3,5-difluoro-4-({3-[1-(trifluoromethyl)cyclobutyl]-1H-pyrrolo[2,3-b]pyridin-4-yl}oxy)phenyl]-6-oxa-8-azaspiro[3.5]non-7-en-7-amine] | < 4.70 | 5.25 | 8.07
4 | Fc1cc(NC2=NCC3(COC3)CO2)cc(F)c1Oc1ccnc2[nH]cc(C3(C(F)(F)F)CC3)c12 [Example 8, N-[3,5-difluoro-4-({3-[1-(trifluoromethyl)cyclopropyl]-1H-pyrrolo[2,3-b]pyridin-4-yl}oxy)phenyl]-2,6-dioxa-8-azaspiro[3.5]non-7-en-7-amine] | < 4.70 | 6.30 | 8.30
5 | Fc1cc(NC2=NCC3(COC3)CO2)cc(F)c1Oc1ccnc2[nH]cc(C3(C(F)(F)F)CCC3)c12 [Example 14, N-[3,5-difluoro-4-({3-[1-(trifluoromethyl)cyclobutyl]-1H-pyrrolo[2,3-b]pyridin-4-yl}oxy)phenyl]-2,6-dioxa-8-azaspiro[3.5]non-7-en-7-amine] | < 4.70 | 5.89 | 8.16
6 | Fc1cc(NC2=NCC3(CC3)CO2)cc(F)c1Oc1ccnc2[nH]cc(C3(C(F)(F)F)CC3)c12 [Example 10, N-[3,5-difluoro-4-({3-[1-(trifluoromethyl)cyclopropyl]-1H-pyrrolo[2,3-b]pyridin-4-yl}oxy)phenyl]-5-oxa-7-azaspiro[2.5]oct-6-en-6-amine] | < 4.70 |  | 
7 | Fc1cc(NC2=NCC3(CCC3)CO2)cc(F)c1Oc1ccnc2[nH]cc(C3(C(F)(F)F)CC3)c12 [Example 12, N-[3,5-difluoro-4-({3-[1-(trifluoromethyl)cyclopropyl]-1H-pyrrolo[2,3-b]pyridin-4-yl}oxy)phenyl]-6-oxa-8-azaspiro[3.5]non-7-en-7-amine] | < 4.70 |  | 
8 | CC1(C)CN=C(Nc2cc(F)c(Oc3ccnc4[nH]cc(C5(C(F)(F)F)CC5)c34)c(F)c2)OC1 [Example 9, N-[3,5-difluoro-4-({3-[1-(trifluoromethyl)cyclopropyl]-1H-pyrrolo[2,3-b]pyridin-4-yl}oxy)phenyl]-5,5-dimethyl-5,6-dihydro-4H-1,3-oxazin-2-amine] | < 4.70 |  | 
9 | Fc1cc(NC2=NCC3(CC3)CO2)cc(F)c1Oc1ccnc2[nH]cc(C3(C(F)(F)F)CCC3)c12 [Example 3, N-[3,5-difluoro-4-({3-[1-(trifluoromethyl)cyclobutyl]-1H-pyrrolo[2,3-b]pyridin-4-yl}oxy)phenyl]-5-oxa-7-azaspiro[2.5]oct-6-en-6-amine] | < 4.70 | 5.80 | 8.40
10 | Fc1cc(NC2=NCC3(CCOC3)CO2)cc(F)c1Oc1ccnc2[nH]cc(C3(C(F)(F)F)CCC3)c12 (racemic) [Example 13, (+/−)-N-[3,5-difluoro-4-({3-[1-(trifluoromethyl)cyclobutyl]-1H-pyrrolo[2,3-b]pyridin-4-yl}oxy)phenyl]-2,7-dioxa-9-azaspiro[4.5]dec-8-en-8-amine] | < 4.70 | 5.92 | 8.21
11 | CC1(C)CN=C(Nc2cc(F)c(Oc3ccnc4[nH]cc(C5(C(F)(F)F)CCC5)c34)c(F)c2)OC1 [Example 4, N-[3,5-difluoro-4-({3-[1-(trifluoromethyl)cyclobutyl]-1H-pyrrolo[2,3-b]pyridin-4-yl}oxy)phenyl]-5,5-dimethyl-5,6-dihydro-4H-1,3-oxazin-2-amine] | < 4.70 | 5.39 | 8.21
12 | Fc1cc(NC2=NCC3(CCOC3)CO2)cc(F)c1Oc1ccnc2[nH]cc(C3(C(F)(F)F)CC3)c12 (racemic) [Example 5, (+/−)-N-[3,5-difluoro-4-({3-[1-(trifluoromethyl)cyclopropyl]-1H-pyrrolo[2,3-b]pyridin-4-yl}oxy)phenyl]-2,7-dioxa-9-azaspiro[4.5]dec-8-en-8-amine] | < 4.70 |  | 
13 | Fc1cc(NC2=NCC3(CCOCC3)CO2)cc(F)c1Oc1ccnc2[nH]cc(C3(C(F)(F)F)CCC3)c12 [Example 2, N-[3,5-difluoro-4-({3-[1-(trifluoromethyl)cyclobutyl]-1H-pyrrolo[2,3-b]pyridin-4-yl}oxy)phenyl]-2,9-dioxa-4-azaspiro[5.5]undec-3-en-3-amine] | < 4.70 | 5.72 | 8.38
14 | Fc1cc(NC2=NCC3(CCOC3)CO2)cc(F)c1Oc1ccnc2[nH]cc(C3(C(F)(F)F)CC3)c12 (single isomer, unassigned; enantiomer 1) [Example 6, N-[3,5-difluoro-4-({3-[1-(trifluoromethyl)cyclopropyl]-1H-pyrrolo[2,3-b]pyridin-4-yl}oxy)phenyl]-2,7-dioxa-9-azaspiro[4.5]dec-8-en-8-amine (single enantiomer 1)] | < 4.70 |  | 
